Patent US7737127B2, “2-propynyl adenosine analogs having A2A agonist activity and compositions thereof” (University of Virginia Patent Foundation, priority 2001, dated 2010)

Key:
A3 AR = biological target: T1, A3 AR (Homo sapiens, UniProt P0DMS8); assay: Radioligand competition binding (125I-ABA) to human A3 AR in HEK 293 cell membranes; conditions: for Ki: A3 ± SEM, Ki from competition binding, 125I-ABA, HEK 293 cell membranes; for A3/A2A: selectivity ratio A3 over A2A
T1 sequence (P0DMS8 1-318): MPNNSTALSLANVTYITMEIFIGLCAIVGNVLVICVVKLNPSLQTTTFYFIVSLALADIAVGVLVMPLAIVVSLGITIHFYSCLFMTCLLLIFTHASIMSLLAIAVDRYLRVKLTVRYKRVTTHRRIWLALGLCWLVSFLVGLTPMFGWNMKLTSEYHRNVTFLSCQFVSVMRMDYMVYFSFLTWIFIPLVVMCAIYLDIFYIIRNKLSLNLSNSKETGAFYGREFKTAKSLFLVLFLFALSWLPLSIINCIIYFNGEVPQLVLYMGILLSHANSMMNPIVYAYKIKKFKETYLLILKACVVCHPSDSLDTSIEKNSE
Description: (§1) Sf9 cells were cultured in Grace's medium supplemented with 10% fetal bovine serum, 2.5 μg/ml amphotericin B and 50 μg/ml gentamycin in an atmosphere of 50% N2/50% O2. […] Infected cells were harvested 3 days post-infection and washed twice in insect PBS (PBS pH 6.3). Cells were then resuspended in lysis buffer (20 mM HEPES pH 7.5, 150 mM NaCl, 3 mM MgCl2, 1 mM β-mercaptoethanol (BME), 5 μg/mL leupeptin, 5 μg/mL pepstatin A, 1 μg/mL aprotinin, and 0.1 mM PMSF) and snap frozen for storage at −80° C. Cells were thawed on ice, brought to 30 mL total volume in lysis buffer, and burst by N2 cavitation (600 psi for 20 minutes). A low-speed centrifugation was performed to remove any unlysed cells (1000×g for 10 minutes), followed by a high-speed centrifugation (17,000×g for 30 minutes). The pellet from the final centrifugation was homogenized in buffer containing 20 mM HEPES pH 8, 100 mM NaCl, 1% glycerol, 2 μg/mL leupeptin, 2 μg/mL pepstatin A, 2 μg/mL Aprotinin, 0.1 mM PMSF, and 10 μM GDP using a small glass homogenizer followed by passage through a 26 gauge needle. Membranes were aliquoted, snap frozen in liquid N2, and stored at −80° C.
(§2) Binding experiments were performed in triplicate with 5 μg (A2A) or 25 μg (A1 and A3) membrane protein in a total volume of 0.1 mL HE buffer (20 mM HEPES and 1 mM EDTA) with 1 U/mL adenosine deaminase and 5 mM MgCl2 with or without 50 μM GTPγS. Membranes were incubated with radioligands at room temperature for three hours (for agonists) or two hours (for antagonists) in Millipore Multiscreene® 96-well GF/C filter plates and assays were terminated by rapid filtration on a cell harvester (Brandel, Gaithersburg, Md.) followed by 4×150 μl washes over 30 seconds with ice cold 10 mM Tris-HCl, pH 7.4, 10 mM MgCl2.

human A1 AR = biological target: T2, human A1 AR (Homo sapiens, UniProt P30542); assay: Radioligand competition binding (125I-ABA) to human A1 AR in CHO K1 cell membranes; conditions: for Ki: A1 ± SEM, Ki from competition binding, 125I-ABA, CHO K1 cell membranes; for A1/A2A: selectivity ratio A1 over A2A
T2 sequence (P30542 1-326): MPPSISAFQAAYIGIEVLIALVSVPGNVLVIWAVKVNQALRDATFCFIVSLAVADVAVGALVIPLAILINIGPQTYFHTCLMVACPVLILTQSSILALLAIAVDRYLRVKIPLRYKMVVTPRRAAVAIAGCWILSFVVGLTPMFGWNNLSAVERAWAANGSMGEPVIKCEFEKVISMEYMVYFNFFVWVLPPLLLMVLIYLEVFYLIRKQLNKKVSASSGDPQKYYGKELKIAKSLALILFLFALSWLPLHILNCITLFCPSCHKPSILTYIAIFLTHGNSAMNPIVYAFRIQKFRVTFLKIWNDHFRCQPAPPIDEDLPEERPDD
Description: as §1, §2

human neutrophils = assay: Human neutrophil oxidative activity, luminol-enhanced chemiluminescence; assay type: cell-based; conditions: for EC50: Homo sapiens, Neutrophil, read-out: PMN oxid (-log EC50) (converted); for EC50 / PMN oxid (-log EC50): human neutrophil experiment w/o Rolipram; for PMN oxid + roli (-log EC50): human neutrophil experiment w/Rolipram
Description: Chemiluminescence Methods: Lumninol enhanced chemiluminescence, a measure of neutrophil oxidative activity, is dependent upon both superoxide production and mobilization of the granule enzyme myeloperoxidase. The light is emitted from unstable high-energy oxygen species such as hypochlorous acid and singlet oxygen generated by activated neutrophils.
The plate was incubated 5 min (37 C) and then fMLP (50 l in HA; final concentration […]) was added to all wells.
Data are presented as peak chemiluminescence as percent of activity in the absence of an adenosine agonist. The EC50 was determined using PRISM software. All compounds were tested with PMNs from three separate donors.
Lummol-enhanced chemiluminescence, a measure of neutrophil oxidative activity, is dependent upon both superoxide production and mobilization of the lysosomal granule enzyme myeloperoxidase. The light is emitted from unstable high-energy oxygen species generated by activated neutrophils. Purified neutrophils (5-10×10^5/ml) were incubated in Hanks balanced salt solution containing 0.1% human serum albumin (1 ml) with the tested A2A agonist with or without rolipram and with or without tumor necrosis factor-alpha (1 U/ml) for 30 minutes at 37° C. in a shaking water bath. […] Chemiluminescence is reported as relative peak light emitted (=height of the curve) compared to samples with tumor necrosis factor-alpha and without agonist or rolipram.

[1] = biological target: recombinant human A2A receptors (Homo sapiens, UniProt P29274); assay: Radioligand competition binding to recombinant human A2A receptors in Sf9 cell membranes; conditions: A2A ± SEM, Ki from competition binding, Sf9 cell membranes
recombinant human A2A receptors, sequence (P29274 whole entry): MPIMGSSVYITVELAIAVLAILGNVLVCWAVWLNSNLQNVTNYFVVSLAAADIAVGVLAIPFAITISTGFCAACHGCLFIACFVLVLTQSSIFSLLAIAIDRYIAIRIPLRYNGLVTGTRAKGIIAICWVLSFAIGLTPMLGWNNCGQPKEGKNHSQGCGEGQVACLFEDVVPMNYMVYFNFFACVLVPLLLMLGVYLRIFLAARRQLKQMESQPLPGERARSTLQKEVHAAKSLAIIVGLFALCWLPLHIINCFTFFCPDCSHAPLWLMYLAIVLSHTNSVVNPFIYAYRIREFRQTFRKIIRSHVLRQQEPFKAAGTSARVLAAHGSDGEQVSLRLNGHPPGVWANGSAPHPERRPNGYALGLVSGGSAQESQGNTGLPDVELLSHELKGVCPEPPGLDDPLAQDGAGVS

| Compound | Ki (A3 AR) [µM] | A3/A2A (A3 AR) | Ki (human A1 AR) [µM] | A1/A2A (human A1 AR) | EC50 (human neutrophils) [µM] | PMN oxid + roli (-log EC50) (human neutrophils) | Ki [1] [µM] | PMN oxid (-log EC50) (human neutrophils) |
| --- | --- | --- | --- | --- | --- | --- | --- | --- |
| CCNC(=O)[C@H]1O[C@@H](n2cnc3c(N)nc(C#CC4(O)CCCCC4C(C)(C)C)nc32)C(O)C1O (stereo in doubt) [JR-3227, 5-[6-Amino-2-(2-tert-butyl-1-hydroxycyclohexylethynyl)purin-9-yl]-3,4-dihydroxytetrahydrofuran-2-carboxylic acid ethylamide] | 0.05 | 2.0 | 0.536 | 21.4 | 7.41 | 7.14 | 0.0251 ± 0.0013 | – |
| CCNC(=O)[C@H]1O[C@@H](n2cnc3c(N)nc(C#CC4(O)CCC(c5ccccc5)CC4)nc32)C(O)C1O (stereo in doubt) [JR-3161, 5-[6-Amino-2-(1-hydroxy-4-phenyl-cyclohexylethynyl)-purin-9-yl]-3,4-dihydroxytetrahydrofuran-2-carboxylic acid ethylamide] | 0.113 ± 0.006 | 127.0 | 0.0109 ± 0.0005 | 12.2 | 0.00447 | 9.29 | 0.0009 ± 4e-05 | – |
| CCNC(=O)[C@H]1O[C@@H](n2cnc3c(N)nc(C#CC4(O)CCCCC4C)nc32)C(O)C1O (single isomer, unassigned) [JR-3181B, 5-[6-Amino-2-(1-hydroxy-2-methyl-cyclohexylethynyl)-purin-9-yl]-3,4-dihydroxytetrahydrofuran-2-carboxylic acid ethylamide] | 0.0389 ± 0.0048 | 58.1 | 0.0242 ± 0.0062 | 36.1 | – | 9.67 | 0.0007 ± 7e-05 | 8.57 |
| CCNC(=O)[C@H]1O[C@@H](n2cnc3c(N)nc(C#CC[C@H]4CC[C@H](COC(=O)OC)CC4)nc32)C(O)C1O (stereo partly drawn) [ATL214, N-Ethyl 2-{3-[trans-4-(methoxycarbonyloxymethyl)-cyclohexyl]-1-propyn-1-yl}adenosine-5′-uronamide] | 0.1 | 125 | 0.1 | 125 | 0.002 | – | 0.0008 | – |
| CCNC(=O)[C@H]1O[C@@H](n2cnc3c(N)nc(C#CCC4CCN(C(=O)OC(C)(C)C)CC4)nc32)C(O)C1O (stereo in doubt) [JR-3259, 4-{3-[6-Amino-9-(5-ethylcarbamoyl-3,4-dihydroxytetrahydrofuran-2-yl)-9H-purin-2-yl]-prop-2-ynyl}-piperidine-1-carboxylic acid tert-butyl ester] | 0.0456 ± 0.01 | 50.7 | 0.205 ± 0.0026 | 227.8 | 0.00347 | 9.26 | 0.0009 ± 0.0001 | – |
| CCNC(=O)[C@H]1O[C@@H](n2cnc3c(N)nc(C#CC4(O)CCCC(C)(C)C4)nc32)C(O)C1O (stereo in doubt) [JR-3201B, 5-[6Amino-2-(1-hydroxy-3,3-dimethylcyclohexylethynyl)-purin-9-yl]-3,4-dihydroxytetrahydrofuran-2-carboxylic acid ethylamide] | 0.0236 ± 0.00035 | 14.8 | 0.157 ± 0.014 | 98.1 | 0.00871 | 9.2 | 0.0016 ± 0.00028 | – |
| CCNC(=O)[C@H]1O[C@@H](n2cnc3c(N)nc(C#CCC4CCC(C(=O)OCCNC(=O)OC(C)(C)C)CC4)nc32)C(O)C1O (stereo in doubt) [JR-3021, 4-{3-[6-Amino-9-(5-ethylcarbamoyl-3,4-dihydroxy-tetrahydrofuran-2-yl)-9H-purin-2-yl]-prop-2-ynyl}-cyclohexanecarboxylic acid 2-tert-butoxycarbonylamino-ethyl ester] | 0.041 ± 0.001 | 25.6 | 0.107 ± 0.01 | 66.9 | 0.0263 | 8.58 | 0.0016 ± 0.0005 | – |
| CCNC(=O)[C@H]1O[C@@H](n2cnc3c(N)nc(C#CCC4CCC(COC(C)=O)CC4)nc32)C(O)C1O (stereo in doubt) [ATL-193, Acetic acid 4-{3-[6-amino-9-(5-ethylcarbamoyl-3,4-dihydroxytetrahydrofuran-2-yl)-9H-purin-2-yl]-prop-2-ynyl}-cyclohexylmethyl ester] | 0.231 ± 0.091 | 210.0 | 0.071 ± 0.014 | 64.5 | 0.00309 | 9.46 | 0.0011 ± 0.0002 | – |
| CCNC(=O)[C@H]1O[C@@H](n2cnc3c(N)nc(C#CCC4CCN(C(=O)OC(C)C)CC4)nc32)C(O)C1O (stereo in doubt) [JR-4009, 4-{3-[6-Amino-9-(5-ethylcarbamoyl-3,4-dihydroxytetrahydrofuran-2-yl)-9H-purin-2-yl]-prop-2-ynyl}-piperidine-1-carboxylic acid isopropyl ester] | 0.086 | 60.1 | 0.167 | 116.4 | 0.00355 | – | 0.00143 ± 0.00023 | – |
| CCNC(=O)[C@H]1O[C@@H](n2cnc3c(N)nc(C#CC4(O)CCCC(C)C4)nc32)C(O)C1O (stereo partly drawn) [JR-3179, 5-[6-Amino-2-(1-hydroxy-3-methyl-cyclohexylethynyl)-purin-9-yl]-3,4-dihydroxytetrahydrofuran-2-carboxylic acid ethylamide] | 0.0126 ± 0.0036 | 28.6 | 0.0085 ± 0.0003 | 19.3 | 0.000661 | 10.07 | 0.0004 ± 5e-05 | – |
| CCNC(=O)[C@H]1O[C@@H](n2cnc3c(N)nc(C#CCC4CCN(C(=O)OCC(C)C)CC4)nc32)C(O)C1O (stereo in doubt) [JR-4011, 4-{3-[6-Amino-9-(5-ethylcarbamoyl-3,4-dihydroxytetrahydrofuran-2-yl)-9H-purin-2-yl]-prop-2-ynyl}-piperidine-1-carboxylic acid isobutyl ester] | 0.0717 | 117.5 | – | 0.0 | 0.00347 | – | 0.00061 ± 6e-05 | – |
| CCNC(=O)[C@H]1O[C@@H](n2cnc3c(N)nc(C#CCC4CCC(C)(C(=O)OC)CC4)nc32)C(O)C1O (single isomer, unassigned) [JR-3067B, 4-{3-[6-Amino-9-(5-ethylcarbamoyl-3,4-dihydroxytetrahydrofuran-2-yl)-9H-purin-2-yl]-prop-2-ynyl}-1-methyl-cyclohexanecarboxylic acid methyl ester] | 0.212 ± 0.095 | 53.0 | 0.121 ± 0.044 | 30.3 | – | 8.2 | 0.004 ± 0.0002 | 6.83 |
| CCNC(=O)[C@H]1O[C@@H](n2cnc3c(N)nc(C#CC4(O)CCCCNC4=O)nc32)C(O)C1O (single isomer, unassigned) [JR-3243B, 5-[6-Amino-2-(3-hydroxy-2-oxo-azepan-3-ylethynyl)purin-9-yl]-3,4-dihydroxytetrahydrofuran-2-carboxylic acid ethylamide] | 0.00334 ± 0.00048 | 1.5 | 0.012 ± 0.005 | 5.3 | – | 8.91 | 0.00225 ± 0.00035 | 7.81 |
| CCNC(=O)[C@H]1O[C@@H](n2cnc3c(N)nc(C#CCC4CCN(C(=O)OCC)CC4)nc32)C(O)C1O (stereo in doubt) [JR-3269, 4-{3-[6-Amino-9-(5-ethylcarbamoyl-3,4-dihydroxytetrahydrofuran-2-yl)-9H-purin-2-yl]-prop-2-ynyl}-piperidine-1-carboxylic acid ethyl ester] | 0.0686 | 54.4 | 0.134 | 106.0 | 0.00224 | – | 0.00126 ± 0.00021 | – |
